Usually IC50 stands for the concentration at which inhibition is half-maximal.

Assay [1] has as its target T1, hENPP2 (UniProtKB/SwissProt Q13822) (Homo sapiens (Human), UniProt Q13822). Nature of the assay: fluorescent hENPP2 biochemical assay, FS-3 as substrate. To be noted: read-out: FS3-IC50. The method, boiled down:
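hENPP2 in 50 mM Tris-HCl pH 8.0, 250 mM NaCl, 5 mM KCl, 1 mM MgCl2, 1 mM CaCl2, 0.1% fatty-acid-free BSA, preincubated with compound 30 min at room temperature. The 0.75 μM FS-3 solution was added and the mixture incubated 30 min at 30° C. Fluorescence (ex 485/em 520 nm) gives IC50.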

Assay [2] concerns LPA 18:2 in rat plasma. Description: Rat whole blood (plasma) LPA assay. The format is biochemical. To be noted: 2 h at 37 C, LPA 18:2 by LC-MS/MS. As to the method:
Whole blood is collected from rats or mouse by exsanguinations on sodium heparin tube, then after centrifugation at 3000 rpm for 15 min at 4° C., plasma is stored at −80° C. Compounds are diluted in DMSO in concentration dependent manner then 0.5 μL are dispensed into 96-well plate placed in ice. Plasma is defrosted on ice then 49.5 μL of plasma are added into the well containing 0.5 μL of compound (1% DMSO final). Plates are covered with a lid in polypropylene and incubated at +37° C., 5% CO2, for 2 h under gentle shaking (except controls which are stored at −20° C.).
At the end of the incubation, controls are defrosted in ice and transferred in the incubated plates for LC-MS/MS analysis with a non GLP-validated method. For the analysis, plasma proteins from a 10 μL incubated plates are precipitated with an excess of methanol containing the internal standard, LPA 17:0. After centrifugation, the corresponding supernatant is injected on a C18 column. Analytes are eluted out of the column under isocratic conditions. An API5500 QTRAP mass spectrometer (ABSciex™) is used for the detection of LPA 18:2. No calibration curve is prepared for LPA 18:2, however relative quantities are evaluated based on the peak area.

The target in assay [3] is T1, hENPP2. Description: hENPP2 biochemical assay, LPC as substrate. To be noted: LPC (palmitoyl 16:0) as substrate. The method, boiled down:
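Human ENPP2 in 50 mM Tris-HCl pH 8.5, 500 mM NaCl, 5 mM KCl, 10 mM CaCl2, 0.1% fatty-acid-free BSA, reacted 30 min at 37 °C with LPC 16:0 (150 µM solution added 1:1). Released choline measured via choline oxidase/peroxidase/TOOS/4-aminoantipyrine quinoneimine dye at 555 nm; IC50 reported.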

Consider `CCc1nc2ccc(N3CCN(C(=O)CCCN(C)C)CC3)cn2c1N(C)c1nc(-c2ccc(F)cc2)cs1` [Compound 53, 4-(dimethylamino)-1-(4-(2-ethyl-3-((4-(4-fluorophenyl)thiazol-2-yl)(methyl)amino)imidazo[1,2-a]pyridin-6-yl)piperazin-1-yl)butan-1-one], for which the IC50 in assay [1] is 0.01 to 100 nM; in assay [2] it was above 1000 nM; in assay [3], above 1000 nM.
With `CCc1nc2ccc(C3CCN(S(=O)(=O)CCCO)CC3)cn2c1N(C)c1nc(-c2ccc(F)cc2)cs1` [Compound 94, 3-[4-(2-Ethyl-3-{[4-(4-fluoro-phenyl)-thiazol-2-yl]-methyl-amino}-imidazo[1,2-a]pyridin-6-yl)-piperidine-1-sulfonyl]-propan-1-ol], the IC50 in assay [1] was in the range of 0.01 to 100 nM; in assay [2], 500 to 1000 nM; in assay [3], 500 to 1000 nM.
As to `CCc1nc2ccc(C3CCN(CC(=O)N4CC(O)C4)CC3)cn2c1N(C)c1nc(-c2ccc(F)cc2)c(C#N)s1` [Compound 141, 2-((2-ethyl-6-(1-(2-(3-hydroxyazetidin-1-yl)-2-oxoethyl)piperidin-4-yl)imidazo[1,2-a]pyridin-3-yl)(methyl)amino)-4-(4-fluorophenyl)thiazole-5-carbonitrile], the IC50 in assay [1], in assay [2] and in assay [3] was 0.01 to 100 nM each time.
As for `CCc1nc2c(C)cc(N3CCN(CC(=O)N4CC[C@H](O)C4)CC3)cn2c1N(C)c1nc(-c2ccc(F)cc2)c(C#N)s1` [Compound 5, (S)-2-((2-ethyl-6-(4-(2-(3-hydroxypyrrolidin-1-yl)-2-oxoethyl)piperazin-1-yl)-8-methylimidazo[1,2-a]pyridin-3-yl)(methyl)amino)-4-(4-fluorophenyl)thiazole-5-carbonitrile], the values for the half-maximal inhibitory concentration (IC50) in assay [1], in assay [2] and in assay [3] were 0.01 to 100 nM, 500 to 1000 nM and 100 to 500 nM, respectively.
Take `CCc1nc2ccc(N3CCN(CC(=O)N4CCC4)CC3)cn2c1N(C)c1nc(-c2ccc(F)cc2C#N)cs1` [Compound 167, 2-(2-((6-(4-(2-(azetidin-1-yl)-2-oxoethyl)piperazin-1-yl)-2-ethylimidazo[1,2-a]pyridin-3-yl)(methyl)amino)thiazol-4-yl)-5-fluorobenzonitrile]: the 50% inhibitory concentration (IC50) in assay [1] was 0.01 to 100 nM; in assay [2], 100 to 500 nM; in assay [3], 0.01 to 100 nM.
With `CCc1nc2ccc(C3=CCN(S(=O)(=O)CCCO)CC3)cn2c1N(C)c1nc(-c2ccc(F)cc2)cs1` [Compound 75, 3-(4-(2-ethyl-3-((4-(4-fluorophenyl)thiazol-2-yl)(methyl)amino)imidazo[1,2-a]pyridin-6-yl)-5,6-dihydropyridin-1(2H)-ylsulfonyl)propan-1-ol], the half-maximal inhibitory concentration (IC50) in assay [1] is 0.01 to 100 nM; in assay [2], above 1000 nM; in assay [3], 500 to 1000 nM.
With `CCc1nc2ccc(C3CCN(CC(=O)N(C)C)CC3)cn2c1N(C)c1nc(-c2ccc(F)cc2C#N)cs1` [Compound 171, 2-(4-(3-((4-(2-cyano-4-fluorophenyl)thiazol-2-yl)(methyl)amino)-2-ethylimidazo[1,2-a]pyridin-6-yl)piperidin-1-yl)-N,N-dimethylacetamide], the IC50 in assay [1] is 0.01 to 100 nM; in assay [2], 100 to 500 nM; in assay [3], 0.01 to 100 nM.
With `CCc1nc2c(C)cc(N3CCN(CC(=O)N4CC[C@@H](O)C4)CC3)cn2c1N(C)c1nc(-c2ccc(F)cc2)c(C#N)s1` [Compound 4, (R)-2-((2-ethyl-6-(4-(2-(3-hydroxypyrrolidin-1-yl)-2-oxoethyl)piperazin-1-yl)-8-methylimidazo[1,2-a]pyridin-3-yl)(methyl)amino)-4-(4-fluorophenyl)thiazole-5-carbonitrile], the figures for the half-inhibitory concentration (IC50) in assay [1], in assay [2] and in assay [3] were 0.01 to 100 nM, 100 to 500 nM and 100 to 500 nM, respectively.
Turning to `CCc1nc2ccc(N3CCN(S(=O)(=O)CCCN(C)C)CC3)cn2c1N(C)c1nc(-c2ccc(F)cc2)cs1` [Compound 56, N-(6-(4-(3-(dimethylamino)propyl-sulfonyl)piperazin-1-yl)-2-ethylimidazo[1,2-a]pyridin-3-yl)-4-(4-fluorophenyl)-N-methylthiazol-2-amine], the IC50 is 0.01 to 100 nM in assay [1], above 1000 nM in assay [2] and 500 to 1000 nM in assay [3].
The matching figures for `CCc1nc2ccc(C3CCN(CC(=O)N4CC(O)C4)CC3)cn2c1N(C)c1nc(-c2ccc(F)cc2C#N)ns1` [Compound 173, 2-(5-((2-ethyl-6-(1-(2-(3-hydroxyazetidin-1-yl)-2-oxoethyl)piperidin-4-yl)imidazo[1,2-a]pyridin-3-yl)(methyl)amino)-1,2,4-thiadiazol-3-yl)-5-fluorobenzonitrile]: 0.01 to 100 nM, 100 to 500 nM and 0.01 to 100 nM.
In the case of `CCc1nc2ccc(C3CCN(CC(=O)N4CCCC4)CC3)cn2c1N(C)c1nc(-c2ccc(F)cc2)cs1` [Compound 115, 2-(4-(2-ethyl-3-((4-(4-fluorophenyl)thiazol-2-yl)(methyl)amino)imidazo[1,2-a]pyridin-6-yl)piperidin-1-yl)-1-(pyrrolidin-1-yl)ethanone], the IC50 in assay [1], in assay [2] and in assay [3] was 0.01 to 100 nM each time.
As for `CCc1nc2ccc(N3CCN(CC(=O)N4CC(O)C4)CC3)cn2c1N(C)c1nc(-c2ccc(F)cc2C#N)c(C)s1` [Compound 162, 2-(2-((2-ethyl-6-(4-(2-(3-hydroxyazetidin-1-yl)-2-oxoethyl)piperazin-1-yl)imidazo[1,2-a]pyridin-3-yl)(methyl)amino)-5-methylthiazol-4-yl)-5-fluorobenzonitrile], the figures for the half-maximal inhibitory concentration (IC50) in assay [1], in assay [2] and in assay [3] were 0.01 to 100 nM, 100 to 500 nM and 100 to 500 nM, respectively.
For `CCc1nc2ccc(N3CCN(C(=O)C4CCCN4)CC3)cn2c1N(C)c1nc(-c2ccc(F)cc2)cs1` (stereo not drawn) [Compound 46, (4-(2-ethyl-3-((4-(4-fluorophenyl)thiazol-2-yl)(methyl)amino)imidazo[1,2-a]pyridin-6-yl)piperazin-1-yl)(pyrrolidin-2-yl)methanone], the 50% inhibitory concentration (IC50) was 0.01 to 100 nM in assay [1], above 1000 nM in assay [2] and above 1000 nM in assay [3].
For the compound `CCc1nc2ccc(N3CCN(CC(=O)N4CC(O)C4)CC3)cn2c1N(C)c1nc(-c2ccc(F)cc2C#N)cs1` [Compound 166, 2-(2-((2-ethyl-6-(4-(2-(3-hydroxyazetidin-1-yl)-2-oxoethyl)piperazin-1-yl)imidazo[1,2-a]pyridin-3-yl)(methyl)amino)thiazol-4-yl)-5-fluorobenzonitrile], the IC50 in assay [1] lay within 0.01 to 100 nM; in assay [2] it was 500 to 1000 nM; in assay [3], 0.01 to 100 nM.
In the case of `CCc1nc2ccc(N3CCN(Cc4ncco4)CC3)cn2c1N(C)c1nc(-c2ccc(F)cc2)cs1` [Compound 40], the IC50 in assay [1] was 0.01 to 100 nM; in assay [2], 500 to 1000 nM; in assay [3], above 1000 nM.
The matching figures for `CCc1nc2ccc(N3CCN(CCO)CC3)cn2c1N(C)c1nc(-c2ccc(F)cc2)cs1` [Compound 180, 2-(4-(2-ethyl-3-((4-(4-fluorophenyl)thiazol-2-yl)(methyl)amino)imidazo [1,2-a]pyridin-6-yl)piperazin-1-yl)ethanol]: 0.01 to 100 nM, above 1000 nM and above 1000 nM.
The matching figures for `CCc1nc2ccc(C3=CCN(S(C)(=O)=O)CC3)cn2c1N(C)c1nc(-c2ccc(F)cc2)cs1` [Compound 66, N-(2-ethyl-6-(1-(methylsulfonyl)-1,2,3,6-tetrahydropyridin-4-yl)imidazo[1,2-a]pyridin-3-yl)-4-(4-fluorophenyl)-N-methylthiazol-2-amine]: 0.01 to 100 nM, above 1000 nM and above 1000 nM.
The matching figures for `CCc1nc2ccc(C3=CCN(S(C)(=O)=O)CC3)cn2c1N(C)c1nccc(-c2ccc(F)cc2)n1` [Compound 187, 2-ethyl-N-(4-(4-fluorophenyl)pyrimidin-2-yl)-N-methyl-6-(1-(methylsulfonyl)-1,2,3,6-tetrahydropyridin-4-yl)imidazo[1,2-a]pyridin-3-amine]: 0.01 to 100 nM, 100 to 500 nM and above 1000 nM.
Regarding `CCc1nc2ccc(C3CCN(CC(=O)N4CC[C@H](O)C4)CC3)cn2c1N(C)c1nc(-c2ccc(F)cc2)cs1` [Compound 112, (S)-2-(4-(2-ethyl-3-((4-(4-fluorophenyl)thiazol-2-yl)(methyl)amino)imidazo[1,2-a]pyridin-6-yl)piperidin-1-yl)-1-(3-hydroxypyrrolidin-1-yl)ethanone], the half-maximal inhibitory concentration (IC50) in assay [1] was 0.01 to 100 nM; in assay [2], 100 to 500 nM; in assay [3], 100 to 500 nM.

The values are drawn from patent publication US9670204B2, “Compounds and pharmaceutical compositions thereof for the treatment of inflammatory disorders” (Galapagos NV, priority 2013, dated 2017).
